Measurements from US10695330B2, “Methods of treatment” (Global Blood Therapeutics, Inc., priority 2015, dated 2020).

What was measured:
Type in all cases: in vivo
[1] = system: mice with LPS-induced ALI; assay: LPS-induced acute lung injury mouse model with hypoxic challenge: inflammation, SpO2, survival; conditions: for survival: after 4 hours of exposure to 5% O2 hypoxia; for increase of SpO2, of control value: 5% O2 hypoxia
Method: (§1) Adult, 8-10-week-old male C57BL/6J mice (Jackson Laboratory, Bar Harbor, Me.), were anesthetized with isoflurane, injected with 100 μg LPS (Sigma, St. Louis, Mo.) in 100 μL PBS by direct intratracheal injection. After 24 hours, mice were given Compound 1 (70 or 140 mg/kg formulated in dimethylacetamide, polyethylene glycol 400 (PEG400) and 40% cavitron in a ratio of 1:5:4, respectively) or vehicle only (5 μL/g) by oral gavage 2 hours prior to placement in a hypoxia chamber. Mice were exposed to either 10 or 5% O2 for 4 hours. Oxygen saturation (SaO2) was measured with a pulse oximeter (STARR Life Sciences, Oakmont, Pa.) at baseline and hourly during hypoxic exposure. During hypoxic exposure, mice were monitored continuously and a moribund check was done every 15 minutes. Time to death was assessed by time to moribund status. Mice were determined to be moribund if they could not right themselves when placed in a supine position.
(§2) Blood was collected by cardiac puncture in the hypoxic chamber. Blood gases were measured using the i-STAT portable analyzer within the hypoxic environment (Abaxis, Union City, Calif.). Remaining blood samples were used for hemoximetry and pharmacokinetic analysis. For sample collection, mice were euthanized with pentobarbital overdose. A bronchoaleveolar lavage (BAL) was performed with 900 uL Saline. Blood was collected by retro orbital puncture, and then spun to collect plasma. Lungs were removed and flash frozen. All samples were stored at −80° C. until further study. BAL inflammatory cell counts and differentials were determined manually after staining cytospins with DiffQuik. BAL protein was measured using a Pierce BCA Protein Assay Kit (Thermo Scientific, Waltham, Mass.).
Using a MouseOx, peripheral arterial O2 saturation (SpO2) was measured during hypoxia. SpO2 was measured for each group every hour during hypoxia. In general, SpO2 decreased during hypoxia for all groups. […] For example, during 5% O2 hypoxia, Compound 1 at 70 mg/kg or 140 mg/kg increased SpO2 by 22% or 31% of control value, respectively.
During exposure hypoxia, mice were monitored continuously and a moribund check was done every 15 minutes. Time to death was assessed by time to moribund status. Mice were determined to be moribund if they could not right themselves when placed in a supine position.

Hb [2] = molecular target: T1, Hb (Mus musculus, UniProt P01942); assay: Tolerance to hypoxia mouse model: PK/PD (Hb occupancy, hemoximetry of blood from dosed mice); conditions: healthy mice
T1 construct: from tissue; host or cells: whole blood (red blood cells) of dosed C57BL / C57BL/6J mice
T1 sequence (P01942 2-142 limits assumed): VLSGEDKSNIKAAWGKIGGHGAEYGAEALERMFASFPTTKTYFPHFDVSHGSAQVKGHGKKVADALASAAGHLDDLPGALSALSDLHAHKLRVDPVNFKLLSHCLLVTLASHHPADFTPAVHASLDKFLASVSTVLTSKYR
T1 sequence (P02088 2-147 partner limits assumed): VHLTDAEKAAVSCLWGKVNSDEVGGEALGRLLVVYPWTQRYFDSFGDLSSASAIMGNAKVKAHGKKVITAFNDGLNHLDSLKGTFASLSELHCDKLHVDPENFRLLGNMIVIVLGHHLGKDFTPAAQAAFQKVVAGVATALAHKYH
Method: Male, C57BL mice were fitted with a dorsal skinfold window chamber for direct visualization of an intact microvascular bed (Yalcin & Cabrales 2012). After the window chamber was implanted, the animals were left to recover for at least 2 days, before undergoing surgery a second time for arterial (carotid) catheter implantation (PESO tubing). After two day of recovery, mice were dosed orally with Compound 1 (70 or 140 mg/kg) or vehicle only and Hb O2 affinity was determined by hemoximetry. Two hours post dose, conscious mice were placed in a restraining tube with a longitudinal slit from which the protruding window chamber provided a microscopic stage for observation. In this setup, gas flow rate (0.2 L/min) into the tube is diffused by a cotton filter barrier. Baseline measurements for normoxia (21% O2) were completed within an hour of restraining mice. The animals were then exposed to stepwise hypoxia by decreasing the O2 concentration to 15, 10 and 5%. Animals were kept at each hypoxic level for 30 min. Mice were allowed 15 min of acclimatization at each new hypoxic level before measurements were taken. During hypoxia, changes in systemic and microvascular hemodynamics, blood gases, blood lactate, tissue partial pressure of O2 (PO2), tissue hypoxia and tolerance to hypoxia were evaluated. At each time point, mice with adequate systolic blood pressure (BP) were counted as survived and mice with severe hypotension (BP≤60 mmHg) were counted as non-survived and were euthanized.
Oxygen equilibrium curves for mice blood were obtained by deoxygenation of O2-equilibrated samples in a Hemox buffer at 37° C., using a Hemox Analyzer (TCS Scientific Corporation, New Hope, Pa.). […] The absorbance at wavelengths that correspond to the isosbestic point (570 nm) and deoxy Hb (560 nm) was recorded as a function of the sample O2 tension (pO2). During deoxygenation, the pO2 and percent O2 saturation values were collected to obtain the OECs and the p50 values (partial pressure of O2 at which Hb is 50% saturated with O2). p50 values were calculated using a non-linear regression analysis. […]

Hb [3] = molecular target: T1, Hb; assay: LPS-induced acute lung injury mouse model: PK/PD (Hb occupancy, hemoximetry); conditions: LPS-induced ALI mice
Method: as §1, §2
Hemoximetry was used to determine the PD effect of Compound 1 in whole blood from dosed mice as described above. Representative oxygen equilibrium curves (OECs) of whole blood obtained from mice dosed with Compound 1 (blue and red lines) or vehicle only (black line) are shown in FIG. 3A.

[4] = 70 or 140 mg/kg oral, vs vehicle

SMILES: O=Cc1c(O)cccc1OC[C@@H]1CCCCN1C(=O)c1cccnc1 [Compound 1, (S)-2-hydroxy-6-((1-nicotinoylpiperidin-2-yl)methoxy)benzaldehyde]
- inflammation or lung injury (BALF total cells, neutrophils, macrophages, total protein) ([1]; 100 μg LPS intratracheal): no significant effect on inflammation or lung injury
- survival ([1]; 70 mg/kg): 60%
- survival ([1]; 140 mg/kg): 86%
- increase of SpO2, of control value ([1]; 70 mg/kg): 22%
- increase of SpO2, of control value ([1]; 140 mg/kg): 31%
- SpO2 compared to control ([1]; during 10% and 5% O2 hypoxia, average over 4 hours): higher in Compound 1 dosed mice compared to control
- calculated Hb occupancy (Hb [2]; 70 mg/kg oral): ~30%
- calculated Hb occupancy (Hb [2]; 140 mg/kg oral): ~60%
- Hb O2 affinity (left-shift in the OEC) in whole blood from dosed mice (Hb [2]; [4]): dose-dependent increase in Hb O2 affinity relative to control
- Hb occupancy (Hb [3]; 70 mg/kg oral): ~19%
- Hb occupancy (Hb [3]; 140 mg/kg oral): ~27%
- Hb O2 affinity (left-shift in the OEC) in whole blood from dosed mice (Hb [3]; [4]): dose-dependent increase in Hb O2 affinity relative to control
